Measured values taken from patent US20200222474A1, “COMPOSITIONS AND METHODS FOR INCREASING PHYTOCHEMICAL BIOAVAILABLITY AND BIOACTIVITY” (North Carolina State University, priority 2017, published 2020).

Tested on: L. acidophilus NCFM
Test: RNA-seq transcriptional analysis of L. acidophilus NCFM growing on plant glycosides
Format: cell-based, Lactobacillus acidophilus
[1] = LBA1481 D-ribose-binding protein precursor, COG G
[2] = LBA1482 Ribose ABC transporter, COG G
[3] = LBA1483 Ribose ABC transporter ATP binding protein, COG G
[4] = LBA1484 D-ribose pyranase, COG G
[5] = LBA1494 Lincomycin-resistance protein, COG GEPR
[6] = LBA1607 Phosphatidylserine decarboxylase precursor, COG I
[7] = LBA1632 NAD-dependent aldehyde dehydrogenase, COG C
[8] = LBA1653 Nicotinamide mononucleotide, COG H
[9] = LBA1684 Putative PTS system IIA component, COG G
[10] = LBA1689 Maltose-6′-phosphate Oucosidase, COG G
[11] = LBA1700 Transcriptional regulator-type, COG K
[12] = LBA1701 Melibiose operon regulatory protein, COG K
[13] = LBA1705 PTS system IIBC component, COG G
[14] = LBA1708 Transcriptional antiterminator, COG K
[15] = LBA1710 Thermostable pullulanase, COG G
[16] = LBA1812 Alpha-glucosidase II, COG G
[17] = LBA1870 Maltose phosphorylase, COG G
[18] = LBA1872 Oligo-1,6-glucosidase, COG G
[19] = LBA1955 Transcription regulator family protein, COG K
[20] = gene LBA0046 (Hypothetical protein)
[21] = gene LBA0149 (Putative nucleotide-binding protein)
[22] = gene LBA0263 (Hypothetical protein)

In the case of `OCc1ccccc1O[C@@H]1O[C@H](CO)[C@@H](O)[C@H](O)[C@H]1O` [Salicin], the “Log2 differential normalized TPM ratio compared to glucose” value [1] is reported as 0.4, the “Log2 differential normalized TPM ratio compared to lactose” value [1] is reported as −0.4 and the “Transcripts per million (rpm)” value [1] is reported as 6.4 rpm. The “Log2 differential normalized TPM ratio compared to glucose” value [2] was 0.7, the “Log2 differential normalized TPM ratio compared to lactose” value [2] was −0.4 and the “Transcripts per million (rpm)” value [2] was 6.1 rpm. The “Log2 differential normalized TPM ratio compared to glucose” value [3] was 0.4, the “Log2 differential normalized TPM ratio compared to lactose” value [3] was −0.7 and the “Transcripts per million (rpm)” value [3] was 4.2 rpm. For the same molecule, the “Log2 differential normalized TPM ratio compared to glucose” value [4] was 0.2, the “Log2 differential normalized TPM ratio compared to lactose” value [4] was −0.5 and the “Transcripts per million (rpm)” value [4] was 4.5 rpm. For the same molecule, the “Log2 differential normalized TPM ratio compared to glucose” value (LBA1485 Ribokinase, COG G) was 0.5, the “Log2 differential normalized TPM ratio compared to lactose” value (LBA1485 Ribokinase, COG G) was −0.3 and the “Transcripts per million (rpm)” value (LBA1485 Ribokinase, COG G) was 4.5 rpm. The “Log2 differential normalized TPM ratio compared to glucose” value [5] was 0.6, the “Log2 differential normalized TPM ratio compared to lactose” value [5] was 0.5 and the “Transcripts per million (rpm)” value [5] was 8.2 rpm. For the same molecule, the “Log2 differential normalized TPM ratio compared to glucose” value [6] was 0.9, the “Log2 differential normalized TPM ratio compared to lactose” value [6] was −0.2 and the “Transcripts per million (rpm)” value [6] was 37.9 rpm. For the same molecule, the “Log2 differential normalized TPM ratio compared to glucose” value [7] was 2, the “Log2 differential normalized TPM ratio compared to lactose” value [7] was 0.2 and the “Transcripts per million (rpm)” value [7] was 300.2 rpm. For the same molecule, the “Log2 differential normalized TPM ratio compared to glucose” value [8] was 1.3, the “Log2 differential normalized TPM ratio compared to lactose” value [8] was 0.7 and the “Transcripts per million (rpm)” value [8] was 618.8 rpm. The “Log2 differential normalized TPM ratio compared to glucose” value [9] was 2.6, the “Log2 differential normalized TPM ratio compared to lactose” value [9] was 0.6 and the “Transcripts per million (rpm)” value [9] was 76.9 rpm. The “Log2 differential normalized TPM ratio compared to glucose” value [10] was 3.7, the “Log2 differential normalized TPM ratio compared to lactose” value [10] was 2.2 and the “Transcripts per million (rpm)” value [10] was 47.4 rpm. The “Log2 differential normalized TPM ratio compared to glucose” value [11] was 0.1, the “Log2 differential normalized TPM ratio compared to lactose” value [11] was −0.4 and the “Transcripts per million (rpm)” value [11] was 23 rpm. The “Log2 differential normalized TPM ratio compared to glucose” value [12] was 1, the “Log2 differential normalized TPM ratio compared to lactose” value [12] was 0.2 and the “Transcripts per million (rpm)” value [12] was 84.1 rpm. The “Log2 differential normalized TPM ratio compared to glucose” value [13] was 1.3, the “Log2 differential normalized TPM ratio compared to lactose” value [13] was 0.4 and the “Transcripts per million (rpm)” value [13] was 8.4 rpm. For the same molecule, the “Log2 differential normalized TPM ratio compared to glucose” value [14] was 1.2, the “Log2 differential normalized TPM ratio compared to lactose” value [14] was −0.2 and the “Transcripts per million (rpm)” value [14] was 1.3 rpm. For the same molecule, the “Log2 differential normalized TPM ratio compared to glucose” value [15] was 0.5, the “Log2 differential normalized TPM ratio compared to lactose” value [15] was 0.1 and the “Transcripts per million (rpm)” value [15] was 10.8 rpm. The “Log2 differential normalized TPM ratio compared to glucose” value (LBA1723 Transposase, COG L) was 0.5, the “Log2 differential normalized TPM ratio compared to lactose” value (LBA1723 Transposase, COG L) was 0.2 and the “Transcripts per million (rpm)” value (LBA1723 Transposase, COG L) was 75.5 rpm. For the same molecule, the “Log2 differential normalized TPM ratio compared to glucose” value [16] was 2.2, the “Log2 differential normalized TPM ratio compared to lactose” value [16] was 0.1 and the “Transcripts per million (rpm)” value [16] was 75.4 rpm. The “Log2 differential normalized TPM ratio compared to glucose” value [17] was −0.9, the “Log2 differential normalized TPM ratio compared to lactose” value [17] was 0.2 and the “Transcripts per million (rpm)” value [17] was 55.6 rpm. For the same molecule, the “Log2 differential normalized TPM ratio compared to glucose” value (LBA1871 Neopullulanase, COG G) was 0.9, the “Log2 differential normalized TPM ratio compared to lactose” value (LBA1871 Neopullulanase, COG G) was 0.2 and the “Transcripts per million (rpm)” value (LBA1871 Neopullulanase, COG G) was 5.1 rpm. The “Log2 differential normalized TPM ratio compared to glucose” value [18] was 1, the “Log2 differential normalized TPM ratio compared to lactose” value [18] was 0.6 and the “Transcripts per million (rpm)” value [18] was 6.2 rpm. The “Log2 differential normalized TPM ratio compared to glucose” value (LBA1873 Acetate kinase, COG C) was 1.2, the “Log2 differential normalized TPM ratio compared to lactose” value (LBA1873 Acetate kinase, COG C) was −0.2 and the “Transcripts per million (rpm)” value (LBA1873 Acetate kinase, COG C) was 8.3 rpm. For the same molecule, the “Log2 differential normalized TPM ratio compared to glucose” value (LBA1878 Glycerol kinase, COG C) was 0.1, the “Log2 differential normalized TPM ratio compared to lactose” value (LBA1878 Glycerol kinase, COG C) was 0 and the “Transcripts per million (rpm)” value (LBA1878 Glycerol kinase, COG C) was 9.3 rpm. For the same molecule, the “Log2 differential normalized TPM ratio compared to glucose” value [19] was −0.3, the “Log2 differential normalized TPM ratio compared to lactose” value [19] was 0.1 and the “Transcripts per million (rpm)” value [19] was 428.6 rpm. For the same molecule, the “number of up-regulated genes” value (RNA-seq, compared to glucose) was 33 genes, the “number of uniquely induced genes” value (RNA-seq, up-regulated genes not shared with the other PGs) was 0 and the “Log2 differential normalized TPM ratio compared to glucose” value [20] was −0.2. For the same molecule, the “Log2 differential normalized TPM ratio compared to lactose” value [20] was −0.9, the “Transcripts per million (rpm)” value [20] was 270.7 rpm and the “Log2 differential normalized TPM ratio compared to glucose” value [21] was 1.2. The “Log2 differential normalized TPM ratio compared to lactose” value [21] was 0.4, the “Transcripts per million (rpm)” value [21] was 1141 rpm and the “Log2 differential normalized TPM ratio compared to glucose” value [22] was 0.9. The “Log2 differential normalized TPM ratio compared to lactose” value [22] was 0.1, the “Transcripts per million (rpm)” value [22] was 30.2 rpm and the “Log2 differential normalized TPM ratio compared to glucose” value (gene LBA0282 (Hypothetical protein)) was 0.7.
